Reference: patent US20210308089A1, “METHODS OF TREATING AND/OR PREVENTING VIRAL INFECTIONS AND/OR DISEASES CAUSED BY VIRUSES IN A SUBJECT IN NEED THEREOF” (priority 2020, published 2021)

System: patients of the REDUCE-IT and earlier EPA placebo-controlled trials
Test: Example 3: adverse events by risk ratio, icosapent ethyl vs placebo (candidate categories; infectious disease terms of interest)
Conditions: R-I
[1] = Age-Related Macular Degeneration

## CC/C=C\C/C=C\C/C=C\C/C=C\C/C=C\CCCC(=O)OCC [icosapent ethyl, eicosapentaenoic acid ethyl ester]
  Risk Ratio (95% CI): Cognitive Decline: Cognitive and attention disorders and disturbances (AE table): 1.000 (0.141 to 7.097) −1
  Risk Ratio (95% CI): Cognitive Decline: Cognitive disturbances (AE table): [No cases in study]
  Risk Ratio (95% CI): Cough (AE table): 1.000 (0.841 to 1.189) −1
  Risk Ratio (95% CI): Cystic Fibrosis (AE table): [No cases in study]
  Risk Ratio (95% CI): Decreased Appetite (AE table): 2.584 (1.329 to 5.024) −4
  Risk Ratio (95% CI): Deep Venous Thromboembolism (AE table): 0.625 (0.205 to 1.909) 2
  Risk Ratio (95% CI): Depression: Depressed mood disorders and disturbances (AE table): 1.106 (0.861 to 1.422) −1
  Risk Ratio (95% CI): Depression: Depressive disorders (AE table): 1.123 (0.867 to 1.454) −1
  Risk Ratio (95% CI): Depression: Depressive disorders - Agitated depression (AE table): [2 drugs vs 0 PBO]
  Risk Ratio (95% CI): Depression: Depressive disorders - Depression (AE table): 1.097 (0.843 to 1.428) −1
  Risk Ratio (95% CI): Depression: Depressive disorders - Major depression (AE table): 3.001 (0.312 to 28.836) −4
  Risk Ratio (95% CI): Depression: Depressive disorders - Persistent depressive disorder (AE table): 2.000 (0.181 to 22.053) −3
  Risk Ratio (95% CI): Depression: Mood alterations - Depressed mood (AE table): 1.000 (0.290 to 3.452) −1
  Risk Ratio (95% CI): Depression: Mood alterations - Depressive symptom (AE table): 0.500 (0.045 to 5.513) 3
  Risk Ratio (95% CI): Depression: Mood alterations with depressive symptoms (AE table): 0.857 (0.288 to 2.549) 1
  Risk Ratio (95% CI): Dermatitis psoriasiform (AE table): [1 drug vs 0 PBO]
  Risk Ratio (95% CI): Dermatitis, allergic (AE table): 0.250 (0.071 to 0.885) 4
  Risk Ratio (95% CI): Diabetic Nephropathy (AE table): 0.909 (0.387 to 2.139) 1
  Risk Ratio (95% CI): ESRD (AE table): 0.667 (0.111 to 3.989) 2
  Risk Ratio (95% CI): Ear infection (AE table): 0.821 (0.515 to 1.307) 1
  Risk Ratio (95% CI): Embolism and Thrombosis (AE table): 1.064 (0.716 to 1.581) −1
  Risk Ratio (95% CI): Emphysema (AE table): 0.600 (0.294 to 1.266) 2
  Risk Ratio (95% CI): Epilepsy (AE table): 1.000 (0.063 to 15.986) −1
  Risk Ratio (95% CI): Erectile dysfunction (AE table): 0.784 (0.535 to 1.151) 2
  Risk Ratio (95% CI): Furuncle (AE table): 0.500 (0.171 to 1.462) 3
  Risk Ratio (95% CI): Gastroenteritis, viral (AE table): 0.789 (0.525 to 1.185) 2
  Risk Ratio (95% CI): Gastroesophageal reflux (AE table): 0.333 (0.090 to 1.231) 4
  Risk Ratio (95% CI): Gingivitis (AE table): 0.500 (0.171 to 1.462) 3
  Risk Ratio (95% CI): Glomerulonephritis and Nephrotic Syndrome (AE table): [0 drug vs 4 PBO]
  Risk Ratio (95% CI): Guttate psoriasis (AE table): [1 drug vs 0 PBO)
  Risk Ratio (95% CI): Helicobacter infection (AE table): 0.556 (0.186 to 1.657) 3
  Risk Ratio (95% CI): Hepatitis C (AE table): [1 drug vs 0 PBO]
  Risk Ratio (95% CI): Herpes Zoster (AE table): 0.960 (0.695 to 1.325) 1
  Risk Ratio (95% CI): Herpes simplex (AE table): 0.625 (0.205 to 1.909) 2
  Risk Ratio (95% CI): Hyperglycemia (AE table): 0.764 (0.562 to 1.037) 2
  Risk Ratio (95% CI): Hyperkalemia (AE table): 0.582 (0.377 to 0.898) 3
  Risk Ratio (95% CI): Hypertension (AE table): 0.930 (0.804 to 1.077) 1
  Risk Ratio (95% CI): Hypertensive Crisis (AE Table): 0.698 (0.439 to 1.110) 2
  Risk Ratio (95% CI): Hypokalemia (AE table): 1.064 (0.784 to 1.445) −1
  Risk Ratio (95% CI): Hypomagnesemia (AE table): 0.675 (0.422 to 1.078) 2
  Risk Ratio (95% CI): IgA Nephropathy (AE table): [No cases in study]
  Risk Ratio (95% CI): Infected bite (AE table): 0.714 (0.227 to 2.249) 2
  Risk Ratio (95% CI): Influenza (AE table): 0.971 (0.824 to 1.144) 1
  Risk Ratio (95% CI): Influenza like illness (AE table): 0.852 (0.489 to 1.483) 1
  Risk Ratio (95% CI): Jaundice cholestatic (AE table): [4 drug vs 0 PBO]
  Risk Ratio (95% CI): Large intestine polyps (AE table): 0.385 (0.137 to 1.078) 4
  Risk Ratio (95% CI): Limb Fractures and Dislocations (AE table): 0.883 (0.541 to 1.439) 1
  Risk Ratio (95% CI): Lupus (AE table): [0 drugs vs 1 PBO]
  Risk Ratio (95% CI): Male Infertility (AE table): [No cases in study]
  Risk Ratio (95% CI): Microalbuminuria (AE table): 0.214 (0.062 to 0.745) 4
  Risk Ratio (95% CI): Migraine (AE table): 2.751 (0.877 to 8.631) −4
  Risk Ratio (95% CI): Mucosal inflammation (AE table): 0.600 (0.144 to 2.510) 2
  Risk Ratio (95% CI): Multiple Sclerosis (AE table): [0 drugs vs 1 PBO]
  Risk Ratio (95% CI): Muscle spasms (AE table): 0.579 (0.421 to 0.795) 3
  Risk Ratio (95% CI): NASH (AE table): 0.167 (0.020 to 1.384) 5
  Risk Ratio (95% CI): NASH for b/l NFS >0.675 (AE table): 0.252 (0.028 to 2.251) 4
  Risk Ratio (95% CI): NASH+Hepatic Steatosis for NFS >0.675 (AE table): 0.740 (0.342 to 1.601) 2
  Risk Ratio (95% CI): Nasopharyngitis, Mild Severity (AE table): 0.975 (0.840 to 1.133) 1
  Risk Ratio (95% CI): Nephrolithiasis (AE table): 1.050 (0.777 to 1.419) −1
  Risk Ratio (95% CI): Nephropathies (AE table): 0.679 (0.380 to 1.213) 2
  Risk Ratio (95% CI): Nephrotic Syndrome (AE table): [0 drug vs 1 PBO]
  Risk Ratio (95% CI): Orthopnea (AE table): 0.500 (0.151 to 1.660) 3
  Risk Ratio (95% CI): PMS/Dysmenorrhea (AE table): [No cases in study]
  Risk Ratio (95% CI): PTSD (AE table): 0.667 (0.111 to 3.989) 2
  Risk Ratio (95% CI): Pancytopenia (AE table): 0.556 (0.186 to 1.657) 3
  Risk Ratio (95% CI): Pneumonia (AE table): 0.950 (0.807 to 1.118) 1
  Risk Ratio (95% CI): Polycystic Ovarian Syndrome (AE table): [No cases in study]
  Risk Ratio (95% CI): Proteinuria (AE table): 0.609 (0.314 to 1.181) 2
  Risk Ratio (95% CI): Psoriasis (AE table): 1.750 (0.949 to 3.230) −3
  Risk Ratio (95% CI): Psoriatic Conditions (AE table): 1.875 (1.024 to 3.435) −3
  Risk Ratio (95% CI): Psychosis: Psychotic disorder NEC (AE table): 0.500 (0.045 to 5.513) 3
  Risk Ratio (95% CI): Pulmonary Edema (AE table): 0.556 (0.257 to 1.202) 3
  Risk Ratio (95% CI): Rental Transplant (AE table): [No cases in study]
  Risk Ratio (95% CI): Respiratory Failure (AE table): 0.909 (0.497 to 1.664) 1
  Risk Ratio (95% CI): Respiratory tract infection (AE table): 0.939 (0.629 to 1.401) 1
  Risk Ratio (95% CI): Rheumatoid Arthritis (AE table): [0 drug vs 3 PBO]
  Risk Ratio (95% CI): Rhinitis (AE table): 0.727 (0.383 to 1.383) 2
  Risk Ratio (95% CI): Schizophrenia NEC (AE table): 0.500 (0.045 to 5.513) 3
  Risk Ratio (95% CI): Sepsis (AE table): 0.786 (0.499 to 1.237) 2
  Risk Ratio (95% CI): Severe chronic obstructive pulmonary disease (AE table): 0.857 (0.458 to 1.607) 1
  Risk Ratio (95% CI): Severe dermatitis, allergic (AE table): 0.250 (0.028 to 2.236) 4
  Risk Ratio (95% CI): Severe gastroenteritis (AE table): 0.667 (0.273 to 1.630) 2
  Risk Ratio (95% CI): Severe sepsis (AE table): 0.759 (0.437 to 1.318) 2
  Risk Ratio (95% CI): Severe systemic inflammatory response syndrome (AE table): 0.167 (0.020 to 1.384) 5
  Risk Ratio (95% CI): Severe urinary tract infection (AE table): 0.650 (0.324 to 1.305) 2
  Risk Ratio (95% CI): Sickle Cell Disease (AE table): [No cases in study]
  Risk Ratio (95% CI): Systemic inflammatory response syndrome (AE table): 0.250 (0.053 to 1.177) 4
  Risk Ratio (95% CI): Tooth infection (AE table): 0.690 (0.391 to 1.217) 2
  Risk Ratio (95% CI): Ulcerative Colitis (AE table): [0 drug vs 1 PBO]
  Risk Ratio (95% CI): Vascular hypertensive disorder (AE table): 0.914 (0.796 to 1.050) 1
  Risk Ratio (95% CI): Vulvovaginal mycotic infection (AE table): 0.455 (0.158 to 1.307) 3
  Risk Ratio (95% CI): Wheezing (AE table): 0.639 (0.379 to 1.076) 2
ADHD
  ARR: 0.0%
  NNT: −8362005
  Risk Ratio (95% CI): 1.000 (0.141 to 7.097) −1
Acute Myeloid Leukaemia
  ARR: 0.0%
  NNT: −8362005
  Risk Ratio (95% CI): 1.000 (0.141 to 7.097) −1
[1]
  ARR: 0.0%
  NNT: −4088
  Risk Ratio (95% CI): 2.000 (0.181 to 22.053) −3
Alzheimer's Disease
  ARR: 0.0%
  NNT: −3344802
  Risk Ratio (95% CI): 1.000 (0.290 to 3.452) −1
Asthma
  ARR: 0.1%
  NNT: −1019
  Risk Ratio (95% CI): 1.076 (0.742 to 1.560) −1
